# Results: patent publication US9938273B2 (Plexxikon Inc., priority 2015, dated 2018)
# Tests used:
# [1] = test system: MOLM-14 D835Y cells, FLT3 ITD and FLT3 D835Y; assay: Cell proliferation assay (CellTiter-Glo), MOLM-14 D835Y; assay type: cell-based; conditions: Homo sapiens, 72 h, 3d-Growth, GMean
# How it was run: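 Three-day growth at 37 °C, 5% CO2 under compound (1 μM top final, 1:3 dilutions, eight points, 0.2% DMSO), read as ATP luminescence by CellTiter-Glo for IC50. Cells: MOLM-14 with FLT3 ITD plus D835Y or F691L, and IL-3-deprived Ba/F3 transfected with FLT3 ITD/D835Y, 1×10^4 per well.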
# FLT3-D835Y = biological target: T1, FLT3-D835Y (Homo sapiens, UniProt P36888, D835Y); assay: AlphaScreen kinase assay with recombinant enzyme, FLT3-D835Y; assay type: biochemical; conditions: 8pt, GMean
# T1 construct: purchased Invitrogen PV3967
# T1 sequence (P36888 27-993 D835Y): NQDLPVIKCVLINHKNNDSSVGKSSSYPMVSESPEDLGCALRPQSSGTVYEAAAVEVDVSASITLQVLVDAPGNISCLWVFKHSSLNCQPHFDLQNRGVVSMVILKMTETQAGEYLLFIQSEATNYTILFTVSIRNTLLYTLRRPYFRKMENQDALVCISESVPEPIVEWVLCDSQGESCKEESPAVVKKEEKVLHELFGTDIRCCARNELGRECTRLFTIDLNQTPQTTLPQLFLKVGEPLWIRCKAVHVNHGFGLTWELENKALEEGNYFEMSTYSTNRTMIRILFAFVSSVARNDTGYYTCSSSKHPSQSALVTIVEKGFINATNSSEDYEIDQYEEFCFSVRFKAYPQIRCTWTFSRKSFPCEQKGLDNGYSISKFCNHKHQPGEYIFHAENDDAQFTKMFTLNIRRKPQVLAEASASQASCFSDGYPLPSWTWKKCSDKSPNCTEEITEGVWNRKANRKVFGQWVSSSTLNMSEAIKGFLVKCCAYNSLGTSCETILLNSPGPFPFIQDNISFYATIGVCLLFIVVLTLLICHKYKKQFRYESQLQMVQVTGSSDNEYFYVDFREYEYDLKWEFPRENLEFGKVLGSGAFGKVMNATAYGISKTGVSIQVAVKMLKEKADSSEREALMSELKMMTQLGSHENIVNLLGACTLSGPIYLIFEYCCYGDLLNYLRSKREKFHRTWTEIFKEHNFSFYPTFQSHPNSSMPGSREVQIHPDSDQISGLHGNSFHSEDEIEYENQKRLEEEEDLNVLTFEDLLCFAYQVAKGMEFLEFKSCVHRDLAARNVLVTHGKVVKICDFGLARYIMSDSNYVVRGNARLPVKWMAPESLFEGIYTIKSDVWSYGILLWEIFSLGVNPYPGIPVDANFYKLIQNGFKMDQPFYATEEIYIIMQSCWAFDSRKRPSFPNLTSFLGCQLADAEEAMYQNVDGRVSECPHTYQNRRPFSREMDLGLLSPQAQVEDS
# How it was run: (§1)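 AlphaScreen, biotinylated poly(Glu4-Tyr) 30 nM final; PY20 anti-pTyr acceptor and streptavidin donor beads 10 μg/mL; IC50 final conc. 10 μM (FLT3-D835Y, FLT3-ITD) / 100 μM (c-KIT); detection incubations 20 + 60 min RT; 580 nm emission.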
# c-KIT = biological target: T2, c-KIT (Homo sapiens, UniProt P10721); assay: AlphaScreen kinase assay with recombinant enzyme, c-KIT; assay type: biochemical; conditions: 100ATP, 8pt, GMean
# T2 construct: purchased Millipore 14-559K
# How it was run: as §1
# T2 sequence (P10721 26-976): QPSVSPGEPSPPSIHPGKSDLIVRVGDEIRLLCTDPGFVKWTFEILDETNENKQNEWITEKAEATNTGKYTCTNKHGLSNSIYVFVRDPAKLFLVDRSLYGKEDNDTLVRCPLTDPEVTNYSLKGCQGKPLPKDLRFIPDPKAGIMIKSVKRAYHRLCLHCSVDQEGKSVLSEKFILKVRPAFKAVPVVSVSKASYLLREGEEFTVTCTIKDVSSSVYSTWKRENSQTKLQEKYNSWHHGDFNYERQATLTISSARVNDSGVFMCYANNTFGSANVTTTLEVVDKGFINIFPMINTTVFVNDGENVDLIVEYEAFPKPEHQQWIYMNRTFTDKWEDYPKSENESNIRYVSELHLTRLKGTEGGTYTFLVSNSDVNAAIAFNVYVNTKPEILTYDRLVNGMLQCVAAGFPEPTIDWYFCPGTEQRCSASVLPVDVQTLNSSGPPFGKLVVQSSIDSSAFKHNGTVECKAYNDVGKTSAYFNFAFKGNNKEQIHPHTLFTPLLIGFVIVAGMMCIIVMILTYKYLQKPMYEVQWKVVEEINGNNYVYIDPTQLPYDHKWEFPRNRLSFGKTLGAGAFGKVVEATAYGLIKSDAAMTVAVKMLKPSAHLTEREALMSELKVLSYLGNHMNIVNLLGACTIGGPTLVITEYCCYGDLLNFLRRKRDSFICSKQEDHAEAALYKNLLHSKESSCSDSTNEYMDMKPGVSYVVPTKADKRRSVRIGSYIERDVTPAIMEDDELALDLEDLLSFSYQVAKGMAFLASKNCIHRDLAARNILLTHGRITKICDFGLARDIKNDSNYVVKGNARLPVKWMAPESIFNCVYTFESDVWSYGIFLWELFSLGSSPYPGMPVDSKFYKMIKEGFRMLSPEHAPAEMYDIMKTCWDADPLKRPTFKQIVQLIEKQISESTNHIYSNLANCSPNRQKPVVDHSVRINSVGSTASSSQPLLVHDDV
SMILES,IC50 [1],IC50 (FLT3-D835Y),IC50 (c-KIT)
"CNC1CCN(C(=O)c2cccc(-c3cnc4[nH]c(-c5cnn(CC(F)(F)F)c5)cc4c3)n2)C1 (stereo not drawn) [Compound P-0061, [3-(methylamino)pyrrolidin-1-yl]-[6-[2-[1-(2,2,2-trifluoroethyl)pyrazol-4-yl]-1H-pyrrolo[2,3-b]pyridin-5-yl]-2-pyridyl]methanone]",0.0001 to 10 µM,0.0001 to 10 µM,10 to 50 µM
"CNC1CCN(C(=O)c2cccc(-c3cnc4[nH]c(-c5cccc(C#N)c5)cc4c3)n2)C1 (stereo not drawn) [Compound P-0062, 3-[5-[6-[3-(methylamino)pyrrolidine-1-carbonyl]-2-pyridyl]-1H-pyrrolo[2,3-b]pyridin-2-yl]benzonitrile]",0.0001 to 10 µM,0.0001 to 10 µM,10 to 50 µM
"CNC1CCN(S(=O)(=O)c2cccc(-c3cnc4[nH]c(-c5ccccc5)cc4c3)n2)C1 (stereo not drawn) [Compound P-0063, N-methyl-1-[[6-(2-phenyl-1H-pyrrolo[2,3-b]pyridin-5-yl)-2-pyridyl]sulfonyl]pyrrolidin-3-amine]",0.0001 to 10 µM,0.0001 to 10 µM,0.0001 to 10 µM
"CN1CCC(NC(=O)c2cccc(-c3cnc4[nH]c(-c5ccccc5)cc4c3)n2)C1 (stereo not drawn) [Compound P-0064, N-(1-methylpyrrolidin-3-yl)-6-(2-phenyl-1H-pyrrolo[2,3-b]pyridin-5-yl)pyridine-2-carboxamide]",0.0001 to 10 µM,0.0001 to 10 µM,0.0001 to 10 µM
"CNC1CCN(C(=O)c2cccc(-c3cnc4[nH]c(C5=CCC(C)(C)CC5)cc4c3)n2)C1 (stereo not drawn) [Compound P-0070, [6-[2-(4,4-dimethylcyclohexen-1-yl)-1H-pyrrolo[2,3-b]pyridin-5-yl]-2-pyridyl]-[3-(methylamino)pyrrolidin-1-yl]methanone]",0.0001 to 10 µM,0.0001 to 10 µM,0.0001 to 10 µM
"O=S(=O)(NC1CNC1)c1cccc(-c2cnc3[nH]c(-c4ccccc4)cc3c2)n1 [Compound P-0071, N-(azetidin-3-yl)-6-(2-phenyl-1H-pyrrolo[2,3-b]pyridin-5-yl)pyridine-2-sulfonamide]",0.0001 to 10 µM,0.0001 to 10 µM,10 to 50 µM
"O=S(=O)(NC1CCNC1)c1cccc(-c2cnc3[nH]c(-c4ccccc4)cc3c2)n1 (stereo not drawn) [Compound P-0072, 6-(2-phenyl-1H-pyrrolo[2,3-b]pyridin-5-yl)-N-pyrrolidin-3-yl-pyridine-2-sulfonamide]",0.0001 to 10 µM,0.0001 to 10 µM,0.0001 to 10 µM
"NC1CCN(S(=O)(=O)c2cccc(-c3cnc4[nH]c(-c5ccccc5)cc4c3)n2)CC1 [Compound P-0073, 1-[[6-(2-phenyl-1H-pyrrolo[2,3-b]pyridin-5-yl)-2-pyridyl]sulfonyl]piperidin-4-amine]",0.0001 to 10 µM,0.0001 to 10 µM,0.0001 to 10 µM
"O=C(Nc1cccc(-c2cnc3[nH]c(-c4ccccc4)cc3c2)n1)C1CNC1 [Compound P-0084, N-[6-(2-phenyl-1H-pyrrolo[2,3-b]pyridin-5-yl)-2-pyridyl]azetidine-3-carboxamide]",0.0001 to 10 µM,0.0001 to 10 µM,0.0001 to 10 µM
"O=C(c1cccc(-c2cnc3[nH]c(-c4ccccc4)cc3c2)n1)N1CCC(NC2CC2)C1 (stereo not drawn) [Compound P-0085, [3-(cyclopropylamino)pyrrolidin-1-yl]-[6-(2-phenyl-1H-pyrrolo[2,3-b]pyridin-5-yl)-2-pyridyl]methanone]",0.0001 to 10 µM,0.0001 to 10 µM,0.0001 to 10 µM
"O=S(=O)(NC1CCNCC1)c1cccc(-c2cnc3[nH]c(-c4ccccc4)cc3c2)n1 [Compound P-0086, 6-(2-phenyl-1H-pyrrolo[2,3-b]pyridin-5-yl)-N-(4-piperidyl)pyridine-2-sulfonamide]",0.0001 to 10 µM,0.0001 to 10 µM,0.0001 to 10 µM

# Now from value to compound:
IC50 [1],IC50 (FLT3-D835Y),IC50 (c-KIT),SMILES
0.0001 to 10 µM,0.0001 to 10 µM,0.0001 to 10 µM,"NC1CCC(NS(=O)(=O)c2cccc(-c3cnc4[nH]c(-c5ccccc5)cc4c3)n2)CC1 (stereo not drawn) [Compound P-0088, N-(4-aminocyclohexyl)-6-(2-phenyl-1H-pyrrolo[2,3-b]pyridin-5-yl)pyridine-2-sulfonamide]"
0.0001 to 10 µM,0.0001 to 10 µM,50 to 100 µM,"O=C(c1cccc(-c2cnc3[nH]c(-c4ccccc4)cc3c2)n1)N1CC(F)(F)C1 [Compound P-0090, (3,3-difluoroazetidin-1-yl)-[6-(2-phenyl-1H-pyrrolo[2,3-b]pyridin-5-yl)-2-pyridyl]methanone]"
0.0001 to 10 µM,0.0001 to 10 µM,50 to 100 µM,"COC1CN(C(=O)c2cccc(-c3cnc4[nH]c(-c5ccccc5)cc4c3)n2)C1 [Compound P-0091, (3-methoxyazetidin-1-yl)-[6-(2-phenyl-1H-pyrrolo[2,3-b]pyridin-5-yl)-2-pyridyl]methanone]"
0.0001 to 10 µM,0.0001 to 10 µM,50 to 100 µM,"CC(C)(C#N)NC(=O)c1cccc(-c2cnc3[nH]c(-c4ccc(C(F)(F)F)nc4)cc3c2)n1 [Compound P-0201, N-(1-cyano-1-methyl-ethyl)-6-[2-[6-(trifluoromethyl)-3-pyridyl]-1H-pyrrolo[2,3-b]pyridin-5-yl]pyridine-2-carboxamide]"
0.0001 to 10 µM,0.0001 to 10 µM,50 to 100 µM,"CC(C)(C#N)NC(=O)c1cccc(-c2cnc3[nH]c(-c4cnc(C(F)(F)F)nc4)cc3c2)n1 [Compound P-0204, N-(1-cyano-1-methyl-ethyl)-6-[2-[2-(trifluoromethyl)pyrimidin-5-yl]-1H-pyrrolo[2,3-b]pyridin-5-yl]pyridine-2-carboxamide]"
0.0001 to 10 µM,0.0001 to 10 µM,50 to 100 µM,"CC(C)(C#N)NC(=O)c1cccc(-c2cnc3[nH]c(-c4ccc(F)nc4)cc3c2)n1 [Compound P-0208, N-(1-cyano-1-methyl-ethyl)-6-[2-(6-fluoro-3-pyridyl)-1H-pyrrolo[2,3-b]pyridin-5-yl]pyridine-2-carboxamide]"
0.0001 to 10 µM,0.0001 to 10 µM,50 to 100 µM,"CC(C)(C#N)NC(=O)c1cccc(-c2cnc3[nH]c(-c4cnc(C(C)(C)O)nc4)cc3c2)n1 [Compound P-0211, N-(1-cyano-1-methyl-ethyl)-6-[2-[2-(1-hydroxy-1-methyl-ethyl)pyrimidin-5-yl]-1H-pyrrolo[2,3-b]pyridin-5-yl]pyridine-2-carboxamide]"
